“Also recorded” adds a separate entry of the source. Read-outs that look alike come from different tables or passages of the source.
T1: cleaved, non-shed MUC1-C (Homo sapiens, UniProt P15941)
T1 construct: expressed in transfected cells; host or cells: K562, Raji and RPMI8226 cells modified to express MUC1-C
T1 sequence (P15941 with tags, fused parts or gaps): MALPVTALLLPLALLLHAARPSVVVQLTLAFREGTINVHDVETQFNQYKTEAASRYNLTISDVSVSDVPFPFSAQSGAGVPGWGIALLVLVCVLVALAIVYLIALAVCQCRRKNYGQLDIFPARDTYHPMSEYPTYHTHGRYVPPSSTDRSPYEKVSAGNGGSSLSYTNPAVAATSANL


Key:
[1] = cited from earlier work
Human pan T-cells = assay: iC9 safety switch test: modified T cells incubated 24 hours with AP1903, viability by 7-AAD flow cytometry; format: cell-based; conditions: 24 hours incubation, 0-1000 nM tested
From the text: FIG. 7 is a series of flow cytometry plots depicting the abundance of cells moving from an area of live cells (the gated lower right quadrant) to an area populated by apoptotic cells (the upper left quadrant) as a function of increasing dosage of the induction agent (AP1903) in cells modified to express a therapeutic agent (a CARTyrin) alone or in combination with an inducible caspase polypeptide of the disclosure (encoded by an iC9 construct (also known as a “safety switch”) introduced into cells by a piggyBac (PB) transposase) at day 12 post nucleofection. […]
FIG. 9 is a pair of graphs depicting a quantification of the aggregated results shown either in FIG. 7 (left graph) or FIG. 8 (right graph). […]
To test the iC9 safety switch, each of the four modified T cells were incubated for 24 hours with 0, 0.1 nM, 1 nM, 10 nM, 100 nM or 1000 nM AP1903 (an induction agent for […]). Viability was assessed by flow cytometry using 7-aminoactinomycin D (7-AAD), a fluorescent intercalator, as a marker for cells undergoing apoptosis.

cells [2] = assay: AP1903 amount needed in vitro for effective signaling of cells; format: cell-based; conditions: conversion with 1600 Da MW
Description: The fixed dose of AP1903 for injection used, for example, may be 0.4 mg/kg intravenously infused over 2 hours. The amount of AP1903 needed in vitro for effective signaling of cells is 10-100 nM (1600 Da MW). This equates to 16-160 μg/L or ^˜0.016-1.6 μg/kg (1.6-160 μg/kg). Doses up to 1 mg/kg were well-tolerated in the Phase I study of AP1903 described above. Therefore, 0.4 mg/kg may be a safe and effective dose of AP1903 for this Phase I study in combination with the therapeutic cells.

cells [3] = conditions: cited from earlier work
cleaved, non-shed MUC1-C = target: T1, cleaved, non-shed MUC1-C; assay: MUC1-scFv CAR function/epitope assay (degranulation, CD107a+ cells); format: cell-based; conditions: cells that received the extracellular MUC1-C construct
Description: (§1) FIG. 14 is a graph depicting a MUC1-scFv CAR function assay. […] MUC1-scFv function is measured by the extent of degranulation of the cells in each condition contacted with the MUC1-scFv along the X-axis. Degranulation was measured as the percentage of total cells that were CD107a-positive (CD107a+).
(§2) The results of a functional assay are provided in the graph wherein MUC1-C scFv-CAR function was measured by the extent of degranulation of the cells in each condition contacted with the MUC1-scFv along the X-axis. Degranulation was measured as the percentage of total cells that were CD107a-positive (CD107a+). The chart summarizes the relative activity of each MUC1-C scFv-CAR during the functional assay.
(§3) The function of each of the MUC1-scFv CARs described in this example was assayed in K562 cells, Raji cells and RPMI8226 cells (“8226”) cells in either unmodified conditions or following transfection with MUC1 constructs (either full-length or MUC1-C) to generate modified K562 cells, modified Raji cells and modified 8226 cells. Function of each of the MUC1-scFv CARs was measured by the CAR's ability to degranulate each cell type. Degranulation was measured by the percent of total cells that express […] (percentage of […] cells).
(§4) The F1C-HL, M1A-LH and K2B-HL MUC1-scFv CARs were further tested to determine epitope binding.

full length MUC1 = target: T2, full length MUC1 (Homo sapiens, UniProt P15941); assay: as above; format: cell-based; conditions: cells expressing full-length MUC1
T2 construct: expressed in transfected cells; host or cells: K562, Raji and RPMI8226 cells
T2 sequence (P15941 24-1255): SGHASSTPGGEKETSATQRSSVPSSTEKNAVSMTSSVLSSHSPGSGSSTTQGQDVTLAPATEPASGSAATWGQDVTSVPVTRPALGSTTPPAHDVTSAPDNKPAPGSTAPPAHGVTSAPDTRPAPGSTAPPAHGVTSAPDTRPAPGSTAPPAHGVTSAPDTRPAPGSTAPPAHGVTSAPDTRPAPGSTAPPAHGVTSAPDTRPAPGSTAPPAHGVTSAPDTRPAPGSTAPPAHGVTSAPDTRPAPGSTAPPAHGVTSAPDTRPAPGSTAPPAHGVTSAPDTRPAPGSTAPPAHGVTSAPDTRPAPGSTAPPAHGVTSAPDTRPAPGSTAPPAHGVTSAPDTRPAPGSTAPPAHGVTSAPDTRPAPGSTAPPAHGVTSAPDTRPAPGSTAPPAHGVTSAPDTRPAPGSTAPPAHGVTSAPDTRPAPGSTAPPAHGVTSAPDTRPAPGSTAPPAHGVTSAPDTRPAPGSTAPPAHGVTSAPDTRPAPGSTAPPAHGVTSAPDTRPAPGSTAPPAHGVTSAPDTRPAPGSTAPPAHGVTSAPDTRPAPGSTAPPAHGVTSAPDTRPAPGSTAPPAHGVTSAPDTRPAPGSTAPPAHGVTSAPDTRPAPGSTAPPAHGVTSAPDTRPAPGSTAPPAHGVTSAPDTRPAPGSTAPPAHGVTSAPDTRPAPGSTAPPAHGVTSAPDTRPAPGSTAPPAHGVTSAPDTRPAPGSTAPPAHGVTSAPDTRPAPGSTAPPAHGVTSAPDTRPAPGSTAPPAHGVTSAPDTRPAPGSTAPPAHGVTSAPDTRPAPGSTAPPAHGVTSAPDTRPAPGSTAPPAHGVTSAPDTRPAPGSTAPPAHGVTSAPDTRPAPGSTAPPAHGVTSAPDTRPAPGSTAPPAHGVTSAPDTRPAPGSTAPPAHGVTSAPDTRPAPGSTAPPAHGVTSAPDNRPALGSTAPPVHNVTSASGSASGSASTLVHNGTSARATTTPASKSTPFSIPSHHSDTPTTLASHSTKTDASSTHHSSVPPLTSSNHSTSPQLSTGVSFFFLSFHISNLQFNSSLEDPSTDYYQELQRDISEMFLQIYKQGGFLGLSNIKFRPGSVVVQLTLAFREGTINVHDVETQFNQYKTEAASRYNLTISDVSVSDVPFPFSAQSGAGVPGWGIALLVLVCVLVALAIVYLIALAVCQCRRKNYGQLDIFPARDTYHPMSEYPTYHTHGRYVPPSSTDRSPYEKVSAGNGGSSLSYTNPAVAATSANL
Description: as §1, §2, §3, §4

[4] = system: MUC1 expressed on activated T cells; assay: as above; format: cell-based, human
Description: as §2
As an initial study, MUC1 expression was assessed in different cell types (see FIG. 13). Cells included in this study: K562 cells (immortalized human chronic myelogenous leukemia cells), Raji cells (human hematopoietic cell line used as a model of cancer), Raji cells modified to express MUC1-C, activated T cells and RPMI8226 cells (human peripheral blood B cell plasmacytoma/myeloma cell line). MUC1 expression in each of these cells was assessed by staining with an anti-MUC1-N antibody.

unmodified cells = assay: as above; format: cell-based, human
Description: as §3, §4

Row | Molecule | AP1903 plasma levels versus dose ([1]; 0.01-1.0 mg/kg dose range) | plasma levels as % of maximal concentration ([1]; 0.5 hours post-dose) | plasma levels as % of maximal concentration ([1]; 2 hours post-dose) | plasma levels as % of maximal concentration ([1]; 10 hours post-dose) | well-tolerated doses ([1]; Phase I study of AP1903) | mean Cmax ([1]; single doses 0.01-1.0 mg/kg infused IV over 2 hours, 24 healthy volunteers, plasma) | concentration at which AP1903 induces apoptosis (lowest of the study) (Human pan T-cells) | amount needed for effective signaling of cells, converted (cells [2]) | amount needed for effective signaling of cells, converted to dose (cells [2]) | amount needed in vitro for effective signaling of cells (cells [3]) | CAR reactivity / binding (degranulation) (cleaved, non-shed MUC1-C) | CAR reactivity / binding (degranulation) (full length MUC1) | CAR reactivity (degranulation) [4] | CAR binding (degranulation) (unmodified cells)
1 | CC[C@H](C(=O)N1CCCC[C@H]1C(=O)O[C@H](CCc1ccc(OC)c(OC)c1)c1cccc(OCC(=O)NCCNC(=O)COc2cccc([C@@H](CCc3ccc(OC)c(OC)c3)OC(=O)[C@@H]3CCCCN3C(=O)[C@@H](CC)c3cc(OC)c(OC)c(OC)c3)c2)c1)c1cc(OC)c(OC)c(OC)c1 (relative stereo) [AP1903, 2-Piperidinecarboxylic acid, 1-[(2S)-1-oxo-2-(3,4,5-trimethoxyphenyl)butyl]−, 1,2-ethanediylbis[imino(2-oxo-2,1-ethanediyl)oxy-3,1-phenylene[(1R)-3-(3,4-dimethoxyphenyl)propylidene]]ester, [2S-[1(R*),2R*[S*[S*[1 (R*),2R*]]]]]-(9C1)] | directly proportional to dose | approximately 18% | ~7% | ~1% | up to 1 mg/kg | 10 to 1275 ng/mL | ≤ 0.1 nM | 16 to 160 µg/L | 0.016 to 1.6 µg/kg | 10 to 100 nM | – | – | – | –
2 | K2B-HL: MUC1 scFv CAR; single chain antibody SEQ ID NO: 10 (protein, left off: a dimerising Fc or GST) scFv: QVQLKESGPGLVAPSQSLSMTCTVSGFSLTTYGVHWVRQPPGKGLEWLVVIWSDGSTTYNSPLKSRLSISRDNSKSQVFLKMNSLQADDTAIYYCAKNYLGSLDYWGQGTSVTVSSGGGGSGGGGSGGGGSDVVLTQTPLSLPVSLGDQASISCRSSQSLVHNNGDTYLHWYLQKPGQSPKLLIYKVSNRFSGVPDRFSGSGSGTDFTFKISRVEAEDLGVYFCSQTTHVPLTFGAGTKLELK | – | – | – | – | – | – | – | – | – | – | only reacts against cleaved, non-shed MUC1-C; also recorded: specifically binds | not full length MUC1 | – | –
3 | F1C-HL: MUC1 scFv CAR; single chain antibody SEQ ID NO: 22 (protein, left off: a dimerising Fc or GST) scFv: QITLKESGPGILQPSQTLSLTCSFSGFSLSTSGMGVSWIRQPSGKGLEWLSHIYWDDDKRYNPSLKSRLSISKDTSRNQVFLKITSVDTADTATYYCAPGVSSWFPYWGPGTLVTVSAGGGGSGGGGSGGGGSSIVMTQTPKFLPVSAGDRVTVTCKASQSVGNYVAWYQQKPGQSPKLLIYFASNRYSGVPDRFTGSGSGTDFTFTISSVQVEDLAVYFCQQHYIFPYTFGSGTKLEIK | – | – | – | – | – | – | – | – | – | – | binds | reacts against full length MUC1; also recorded: binds | including that expressed on activated T cells | binds

From patent publication US20190328784A1, “CHIMERIC ANTIGEN RECEPTORS (CARS) SPECIFIC FOR MUC1 AND METHODS FOR THEIR USE” (Poseida Therapeutics, Inc., priority 2016, published 2019)
